Measured values reported in ChEMBL document CHEMBL1201862, “PubChem BioAssay data set” (2004).
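Step 1: Grow cells in 96-well plates. Step 2: Expose to compound for 48 hours at 5 concentrations. Step 3: Interpolate endpoints linearly; if unreached, use highest concentration. The concentration for 50% growth inhibition is given as GI50.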 Active and inactive are the calls of the source. Cut-off read from the data, not from the text of the source: active = GI50 up to about 1.1 µM and inactive = higher.

Columns and labels:
Assay in all cases: NCI tumour cell line growth inhibition, 48 h
NCI-H226 = test system: NCI-H226
OVCAR-4 = test system: OVCAR-4
HOP-62 = test system: HOP-62
ACHN = test system: ACHN
A498 = test system: A498
UACC-257 = test system: UACC-257
OVCAR-5 = test system: OVCAR-5
SK-MEL-2 = test system: SK-MEL-2
COLO 205 = test system: COLO 205
SK-MEL-5 = test system: SK-MEL-5
OVCAR-8 = test system: OVCAR-8
KM12 = test system: KM12
DU-145 = test system: DU-145
SNB-19 = test system: SNB-19
MCF7 = test system: MCF7
TK-10 = test system: TK-10
HL-60 = test system: HL-60
MOLT-4 = test system: MOLT-4
CAKI-1 = test system: CAKI-1
RPMI-8226 = test system: RPMI-8226

Measured: GI50

O=C1c2cc([N+](=O)[O-])ccc2-c2ccc3c4ccc5c6c(ccc(c7ccc1c2c73)c64)C(=O)c1cc([N+](=O)[O-])ccc1-5
inactive: NCI-H226 > 100 µM | OVCAR-4 > 100 µM | HOP-62 > 100 µM | ACHN > 100 µM | A498 4.03 µM | UACC-257 > 100 µM | OVCAR-5 > 100 µM | SK-MEL-2 > 100 µM | COLO 205 > 100 µM | SK-MEL-5 > 100 µM | OVCAR-8 > 100 µM | KM12 > 100 µM | DU-145 > 100 µM | SNB-19 > 100 µM | MCF7 > 100 µM | TK-10 > 100 µM | HL-60 > 100 µM | MOLT-4 > 100 µM | CAKI-1 > 100 µM | RPMI-8226 > 100 µM

CCOC(=O)c1c(OCC)[nH]c(=O)c(C(c2ccc(F)cc2)c2c(O)c(C(=O)OCC)c(OCC)[nH]c2=O)c1O
inactive: NCI-H226 9.82 µM | OVCAR-4 14.6 µM | HOP-62 13 µM | ACHN 16.3 µM | A498 11.4 µM | UACC-257 14.8 µM | OVCAR-5 29 µM | SK-MEL-2 16.6 µM | COLO 205 25.9 µM | SK-MEL-5 12.8 µM | OVCAR-8 14 µM | KM12 16.9 µM | DU-145 11.1 µM | SNB-19 17.1 µM | MCF7 20.4 µM | TK-10 25.2 µM | HL-60 17.2 µM | MOLT-4 20.1 µM | CAKI-1 18.9 µM | RPMI-8226 16.1 µM

Cn1c(=O)c2c3ccccc3n(C)c2n(C)c1=O
inactive: NCI-H226 > 100 µM | OVCAR-4 > 100 µM | HOP-62 > 100 µM | ACHN 97.9 µM | A498 > 100 µM | UACC-257 > 100 µM | OVCAR-5 > 100 µM | SK-MEL-2 > 100 µM | COLO 205 > 100 µM | SK-MEL-5 > 100 µM | OVCAR-8 > 100 µM | KM12 > 100 µM | DU-145 > 100 µM | SNB-19 > 100 µM | MCF7 > 100 µM | TK-10 > 100 µM | HL-60 > 100 µM | MOLT-4 > 100 µM | CAKI-1 > 100 µM | RPMI-8226 > 100 µM

COc1cc(OC)c(/C=N\Nc2nc3ccccc3c(=O)n2-c2ccccc2)c(OC)c1
inactive: NCI-H226 19.4 µM | OVCAR-4 28.8 µM | HOP-62 19.4 µM | ACHN 18.1 µM | A498 11.8 µM | UACC-257 27.5 µM | OVCAR-5 43.9 µM | SK-MEL-2 25.4 µM | COLO 205 45.3 µM | SK-MEL-5 26.2 µM | OVCAR-8 28.7 µM | KM12 > 31.6 µM | DU-145 31.3 µM | SNB-19 24 µM | MCF7 > 47.1 µM | TK-10 34.1 µM | HL-60 33 µM | MOLT-4 22.9 µM | CAKI-1 16 µM | RPMI-8226 26.4 µM

COc1ccc(/C=C(/c2ccccc2)c2c(C)cc(C)c(/C(=C\c3ccc(OC)cc3)c3ccccc3)c2/N=N/c2cc(C)cc(C)c2)cc1
inactive: NCI-H226 34.2 µM | OVCAR-4 20.1 µM | HOP-62 20.9 µM | ACHN > 56.5 µM | A498 32.7 µM | UACC-257 7.69 µM | OVCAR-5 > 84.5 µM | SK-MEL-2 7.74 µM | COLO 205 8.04 µM | SK-MEL-5 17.6 µM | OVCAR-8 17.9 µM | KM12 9.64 µM | DU-145 25.6 µM | SNB-19 15.5 µM | MCF7 9.91 µM | TK-10 21.9 µM | HL-60 10.3 µM | MOLT-4 15.7 µM | CAKI-1 > 88.1 µM | RPMI-8226 6.07 µM

COc1ccc(/C=C2\CCC(CNc3cc(C)on3)C2=O)cc1 (stereo not given)
inactive: NCI-H226 > 100 µM | OVCAR-4 > 100 µM | HOP-62 47.4 µM | ACHN > 100 µM | A498 > 72.4 µM | UACC-257 > 94.6 µM | OVCAR-5 > 100 µM | SK-MEL-2 > 79.3 µM | COLO 205 > 100 µM | SK-MEL-5 > 100 µM | OVCAR-8 > 100 µM | KM12 > 100 µM | DU-145 > 83.6 µM | SNB-19 64.4 µM | MCF7 > 100 µM | TK-10 > 84.9 µM | HL-60 > 21.5 µM | MOLT-4 > 100 µM | CAKI-1 > 100 µM | RPMI-8226 > 100 µM

CCOC(=O)c1cc(-n2nnc3ccccc32)cn1C
inactive: NCI-H226 > 10 µM | OVCAR-4 > 10 µM | HOP-62 > 10 µM | ACHN > 10 µM | A498 > 10 µM | UACC-257 > 10 µM | OVCAR-5 > 10 µM | SK-MEL-2 > 10 µM | COLO 205 > 10 µM | SK-MEL-5 > 10 µM | OVCAR-8 > 10 µM | KM12 > 10 µM | DU-145 > 10 µM | SNB-19 > 10 µM | MCF7 > 10 µM | TK-10 > 10 µM | HL-60 > 10 µM | MOLT-4 > 10 µM | CAKI-1 > 10 µM | RPMI-8226 > 10 µM

Nc1ccccc1.O=C(O)C(C(F)(F)F)C(F)(F)F
inactive: NCI-H226 > 100 µM | OVCAR-4 > 100 µM | HOP-62 > 100 µM | ACHN > 100 µM | A498 > 100 µM | UACC-257 > 100 µM | OVCAR-5 > 100 µM | SK-MEL-2 > 100 µM | COLO 205 > 100 µM | SK-MEL-5 > 100 µM | OVCAR-8 > 100 µM | KM12 71.8 µM | DU-145 99.5 µM | SNB-19 > 100 µM | MCF7 > 100 µM | TK-10 > 100 µM | HL-60 > 100 µM | MOLT-4 > 100 µM | CAKI-1 34 µM | RPMI-8226 > 100 µM

O=c1[nH]nc(Cc2ccccc2)n1/N=C/c1ccccc1O
inactive: NCI-H226 > 100 µM | OVCAR-4 > 100 µM | HOP-62 25.9 µM | ACHN > 100 µM | A498 > 100 µM | UACC-257 > 100 µM | OVCAR-5 > 100 µM | SK-MEL-2 > 100 µM | COLO 205 > 100 µM | SK-MEL-5 > 100 µM | OVCAR-8 40.1 µM | KM12 > 100 µM | DU-145 > 100 µM | SNB-19 79.8 µM | MCF7 > 100 µM | TK-10 > 100 µM | HL-60 > 100 µM | MOLT-4 > 100 µM | CAKI-1 > 100 µM | RPMI-8226 > 100 µM

CC(=O)OC1CC[C@@]2(C)C(CC[C@]3(C)C2CC=C2[C@@H]4C(C)[C@H](C)CCC4(C)CCC23C)[C@@]1(C)C(=O)O (stereo not given in full)
inactive: NCI-H226 22.1 µM | OVCAR-4 26 µM | HOP-62 20.7 µM | ACHN 18.2 µM | A498 19.5 µM | UACC-257 21 µM | OVCAR-5 18 µM | SK-MEL-2 21.3 µM | COLO 205 20.4 µM | SK-MEL-5 17.4 µM | OVCAR-8 23.6 µM | KM12 21.2 µM | DU-145 17.9 µM | SNB-19 22.9 µM | MCF7 16 µM | TK-10 18.6 µM | HL-60 27.4 µM | MOLT-4 26.8 µM | CAKI-1 18.2 µM | RPMI-8226 21.9 µM
